The nature of the series: gradient 5% acetonitrile 3 min, to 50% in 2 min, to 85% in 15 min, held 3 min, 100 µL/min. The following applies: column: Zorbax Extend-C18 2.1 x 50 mm; eluents: water / acetonitrile, 0.1% formic acid. Summed up:
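In both positive and negative ionization mode, a quadrupole time-of-flight mass spectrometer coupled to HPLC analyzed pure standards run in mixtures of ~100 molecules. The Zorbax Extend-C18 column (2.1 × 50 mm, 1.8 μm) was operated at 100 μL/min with water and acetonitrile, each containing 0.1% formic acid. The dead volume was 40 μL and the dwell volume 900 μL. Retention time came from adduct peaks that were computationally picked and individually inspected by hand.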
Compound `COc1cccc(-c2nnc(Cc3nc(-c4ccc(C)c(C)c4)no3)o2)c1` came in with an RP-LC retention time of 1120 s.

Regarding `O=C(NCc1ccc(F)cc1Cl)C1CCN(c2ncnc3c2oc2ccccc23)CC1`, the RP-LC retention time turned out to be 790 s. The same measure for `Cc1ccc(N(C)S(=O)(=O)c2cc(-c3[nH]ncc3C(=O)N3CCCC3)oc2C)cc1`: 776 s; for `O=C(Nc1c(F)cccc1F)N1CC(c2nc(Cc3ccccc3)no2)C1`: 753 s.

`CCC(C)NC(=O)C1CCN(S(=O)(=O)c2cc(C(=O)N3CCCC3)n(C)c2)CC1` (stereo not drawn): the RP-LC retention time stood at 660 s. The same measure for `CCC(C)n1c(=O)c2ccccc2n(Cc2nc(-c3ccccc3)no2)c1=O` (stereo not drawn): 1190 s. The same measure for `Cc1cc(C(=O)Nc2ccc(Cl)cc2)nc2cc(-c3ccco3)nn12`: 1170 s; for `CCOc1ccc(C(=O)N2CCN(c3ccc(-c4nc(CC)cs4)cn3)CC2)cc1`: 987 s. Next, `CCOc1ccc(-c2nc(CN(c3ccccc3)S(=O)(=O)c3cccs3)c(C)o2)cc1OC`: 1120 s; `CCCC(NC(=O)Cc1ccccc1Cl)C(=O)Nc1nc2ccccc2[nH]1` (stereo not drawn): 713 s. In turn, `CC(C)Cn1c(=O)c2cc(C(=O)NCCCn3cccn3)nn2c2ccccc21` displayed an RP-LC retention time of 831 s.

Turning to `N#Cc1ccc(C(=O)NC2CCN(C(=O)N3C[C@H]4C[C@H](C3)[C@H]3CCCC(=O)N3C4)CC2)cc1`, the RP-LC retention time was found to be 640 s. The same measure for `Cc1ccc(NC(=O)N2CCCC2c2nc(-c3ccccc3)no2)c(Cl)c1` (stereo not drawn): 1100 s; for `O=c1ccc(-c2ccc(S(=O)(=O)N3CCN(c4ccccn4)CC3)s2)n[nH]1`: 595 s. The same measure for `COc1cccc(CN2CCC3(CC2)NCCc2c3[nH]c3ccc(OC)cc23)c1`: 589 s; for `O=C(C1CC(=O)N(c2n[nH]c3cccc(F)c23)C1)N1CCN(c2ccc(F)cc2)CC1` (stereo not drawn): 740 s.

For `CNC(=O)[C@@H]1C[C@H](Oc2ccccc2)CN1C(=O)Cn1c(=O)oc2ccccc21`, the RP-LC retention time is 732 s. Next, `O=C(NC1CCCCCC1)C1CCN(c2nc3ccccc3nc2C(F)(F)F)CC1`: 1200 s; `COC(=O)c1ccc2c(=O)n(Cc3ccc(OC)cc3)c(N3CCC(C(N)=O)CC3)nc2c1`: 744 s; `CCCN1C(=O)c2cccnc2Sc2cc(C(=O)NC3CCCC3)ccc21`: 837 s. Next, `COc1ccc(Cl)cc1C(=O)N1CCN(c2cc(C)nc(N3CCCC3)n2)CC1`: 665 s; `CCC(=O)Nc1ccc(-n2cnc(C(=O)NCC3CC3)c2)nc1`: 660 s; `C#CCSc1nc2ccccc2c2nc(-c3cccnc3)nn12`: 998 s. Next, `CCn1cc(C)c(C(=O)O)c1CC(=O)N1CCCc2ccccc21`: 811 s; `O=C(NCCc1nc2cccnc2n1-c1ccccc1)c1ccoc1`: 646 s. Consider `CN(C)c1ncncc1N1CCC(C(=O)NC2CCCCCC2)CC1`, for which the RP-LC retention time is 624 s. The same measure for `CCC(CC)C(=O)N1CCc2c(c(C(=O)N3CCCC(C(=O)Nc4ccccc4C)C3)nn2C)C1` (stereo not drawn): 817 s; for `CC[C@H](C)NC(=O)Cc1nnc(-c2ccc(OC)cc2)o1`: 707 s.

`O=C(NC1CCCC1)C1CCCN(c2nnc3ccc(Cl)cn23)C1` (stereo not drawn) returned an RP-LC retention time of 648 s. Next, `CCCNC(=O)C1CCCN(c2ccc(SCC(=O)NCc3ccc(C)c(C)c3)nn2)C1` (stereo not drawn): 698 s; `Cn1ncc2c(N3CCSCC3)nc(C(=O)N3CCN(c4ccccc4)CC3)nc21`: 830 s; `Cn1c(CCN2C(=O)C3(CCOCC3)CC2c2nnnn2C(C)(C)C)nc2ccccc21` (stereo not drawn): 578 s.

The compound `Cc1ccccc1-c1noc(Cn2ccn3nc(-c4ccc5c(c4)OCO5)cc3c2=O)n1` returned an RP-LC retention time of 1040 s. The same measure for `COCCN1[C@@H]2CCN(Cc3ccc(C#N)cc3)C[C@@]2(C(=O)N2CCOCC2)CCS1(=O)=O`: 641 s; for `COc1cc(NC(=O)CN2C(=O)C(O)(c3cccc(F)c3)c3ccccc32)cc(OC)c1` (stereo not drawn): 894 s; for `Cc1ccc(C)c(NC(=O)N(C)CC2CCOC2)c1` (stereo not drawn): 705 s. The same measure for `CN=C(NC#N)Nc1ccc(C2=NNC(=O)CC2C)cc1` (stereo not drawn): 672 s.

In turn, `Cc1ccc(C)c(NC(=O)N2c3ccccc3CC2c2nc(C3CC3)no2)c1` (stereo not drawn) displayed an RP-LC retention time of 1060 s.

`Cc1ccc(CSc2nnc3c(S(=O)(=O)N4CCN(c5ccc(F)cc5)CC4)cccn23)cc1` yielded an RP-LC retention time of 998 s.

`COc1ccc(CCNC(=O)c2cccc3c2C(=O)N(CC2CCCO2)C3)c(OC)c1OC` (stereo not drawn) had an RP-LC retention time of 875 s.

As for `CC(C)CNC(=O)C1CC(=O)N(CCc2c[nH]c3ccc(Cl)cc23)C1` (stereo not drawn), the RP-LC retention time was determined as 781 s. Next, `COc1ccc(C(=O)Nc2nc(-c3ccc4c(c3)NC(=O)C(C)O4)c(C)s2)cc1` (stereo not drawn): 924 s; `Cc1ccc(NC(=O)CN2CCc3[nH]c4c(C)c(C)ccc4c(=O)c3C2)cc1`: 626 s.

The compound `O=C(c1cc(C2CC2)on1)N1CCCC1` yielded an RP-LC retention time of 718 s. Next, `CCOC(=O)N1CCN(C(=O)C2CCN(c3ccc(Sc4ccc(C(C)C)cc4)nn3)CC2)CC1`: 896 s; `COc1cccc(C(=O)Nc2ccc3c(c2)Sc2ncccc2C(=O)N3C(C)C)c1OC`: 915 s. The compound `O=C(c1csc(N2CCN(c3ccccc3)CC2)n1)N1CCC(N2CCCCC2)CC1` gave an RP-LC retention time of 668 s. In the case of `CCn1cc(-c2nc(C(=O)NCc3ccccc3C)cs2)c2cccnc21`, the RP-LC retention time worked out at 1060 s.

Turning to `COc1ccc(-c2ncc3c(n2)CCN(S(=O)(=O)c2ccccc2C)C3)cc1`, the RP-LC retention time turned out to be 1070 s. Next, `CCn1c(=O)c(C)nc2cc(-c3noc(-c4ccc5c(c4)OCO5)n3)ccc21`: 1030 s; `N#Cc1ccc(S(=O)(=O)N2CCOCCNC(=O)[C@H]3CCCC[C@H]32)cc1`: 747 s. The same measure for `CCOC(=O)c1cc(S(=O)(=O)N2CCCC2C(=O)N2CCC(Cc3ccccc3)CC2)cn1C` (stereo not drawn): 1020 s; for `Cc1ccc(N2CC(C(=O)NCC(C)(O)C3CC3)CC2=O)cc1C` (stereo not drawn): 673 s. Take `CCn1cnc(S(=O)(=O)N2CCC(C(=O)N3CCC(C)CC3)CC2)c1`: the RP-LC retention time turned out to be 678 s.

`Cc1ccc(NS(=O)(=O)c2cc(-c3[nH]ncc3C(=O)N3CCCC3)oc2C)c(F)c1` showed an RP-LC retention time of 738 s. The same measure for `CC1=C(c2ccccc2)S(=O)(=O)N=C1N1CCCN(C(=O)c2ccc(F)cc2F)CC1`: 835 s; for `O=C(NC1CCCCCC1)c1ccc(-c2cncnc2)nc1`: 764 s; for `C=C1C[C@H]2[C@@H]3CCC4=CC(=O)CC[C@@H]4[C@H]3CC[C@]2(C)[C@@]1(OC(C)=O)C(C)=O`: 1160 s.

(Values after the METLIN SMRT retention time set (Domingo-Almenara et al. 2019).)
